Experimental data as given in patent US20260284208A1, “SYSTEM” (Oxford University Innovation Limited, priority 2023, published 2026).

What was measured:
[1] = target: IKZF3 130-189aa Q147A N149E Q150V S154K (AEVK) ZF-GFP (Homo sapiens, UniProt Q96SW2+Q9UKT9, N149E/Q147A/Q150V/S154K); test: GFP degradation flow cytometry assay, AEVK mutant ZF-eGFP; assay type: cell-based
Description: The following method was used to generate lentiviral vectors for plasmids tested in library hit confirmation experiments: WT, QPIS, ANQS, APIS, HEIP, FEVP, WEIK, FDIP, AEVK, WNQS, WEIS, WNIQ, and WDIA. HEK293T cells were seeded into 6 well TC-treated cell culture dishes (Falcon) at 7×10^5 cells per well and incubated overnight at 37° C. and 5% CO2. […] In a separate tube 2 μL of PEIPro (Polyplus) was added to 100 μL of OptiMEM. The solution containing PEIPro and DNA was mixed and incubated at room temperature for 15 minutes to create the transfection mixture. The transfection mixture was added to cells and incubated for 5-6 hours at 37° C. and 5% CO2. After 2 days, the supernatant was harvested and fresh media was added to cells. 24 hours later, the supernatant was harvested and combined with the first supernatant harvested. Supernatant was centrifuged at 2000×g room temperature for 5 minutes, then the supernatant was filtered through a 0.45 μm cellulose acetate syringe filter and frozen at −80° C. […]
Jurkat cells were added to 96 well U-bottom assay plates (Falcon) at 1×10^5 cells per well and treated with compounds for 18 hours at 37° C. and 5% CO2. […] Data was analysed using FlowJo 10.8.1 (BD).
Having assessed the broad trends from this library screen, the sequences with the highest log FC values for A63 and B08 were selected and transduced into separate Jurkat cell lines. […]

[2] = target: AEVK-GFP in transduced Jurkat cells (Homo sapiens, UniProt Q96SW2+Q9UKT9, N149E/Q147A/Q150V/S154K); test: Immunoblotting of AEVK ZF-eGFP; assay type: cell-based; conditions: 10 μM; Jurkats transduced with AEVK-GFP
Description: Jurkat cells were added to T25 flasks (Falcon) at 2×10^6 cells per flask and were incubated with compounds for 18 hours at 37° C. and 5% CO2. Cells were lysed in buffer containing 9 M urea (Sigma), 75 mM Tris-HCl (Sigma), 0.15 M β-mercaptoethanol (Merck) and 10× diluted protease inhibitor cocktail (Merck). Cells lysates were sonicated for 10 seconds 3 times, centrifuged at 13000 rpm for 10 minutes at 4° C. and the supernatants were transferred into fresh tubes. Protein concentrations were measured using a Pierce BCA Protein Assay Kit (Thermo). Proteins were boiled in Laemmli sample buffer (Bio-Rad) for 5 minutes at 100° C. and separated by SDS-PAGE (7.5% Mini-PROTEAN TGX gels, Bio-Rad) and compared to the PageRuler Prestained Protein Ladder (Thermo). Semi-dry blotting was done on a Trans-Blot Turbo Transfer System (Bio-Rad) with the Trans-Blot Turbo RTA Mini 0.2 μm PVDF Transfer Kit (Bio-Rad) using the default mixed molecular weight mode. […] Membranes were scanned with a Bio-Rad ChemiDoc XRS+ Imaging System (Bio-Rad) and signal intensities were quantified using Image Lab software (Bio Rad). Band densitometry was assessed, normalized to vinculin bands, and reported as percentage of the DMSO control lane.

Sequence of IKZF3 130-189aa Q147A N149E Q150V S154K (AEVK) ZF-GFP (Q9UKT9 130-189 Q147A/N149E/Q150V/S154K): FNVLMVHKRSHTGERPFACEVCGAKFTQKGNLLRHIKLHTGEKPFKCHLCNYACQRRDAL
Sequence of IKZF3 130-189aa Q147A N149E Q150V S154K (AEVK) ZF-GFP (Q96SW2 whole entry): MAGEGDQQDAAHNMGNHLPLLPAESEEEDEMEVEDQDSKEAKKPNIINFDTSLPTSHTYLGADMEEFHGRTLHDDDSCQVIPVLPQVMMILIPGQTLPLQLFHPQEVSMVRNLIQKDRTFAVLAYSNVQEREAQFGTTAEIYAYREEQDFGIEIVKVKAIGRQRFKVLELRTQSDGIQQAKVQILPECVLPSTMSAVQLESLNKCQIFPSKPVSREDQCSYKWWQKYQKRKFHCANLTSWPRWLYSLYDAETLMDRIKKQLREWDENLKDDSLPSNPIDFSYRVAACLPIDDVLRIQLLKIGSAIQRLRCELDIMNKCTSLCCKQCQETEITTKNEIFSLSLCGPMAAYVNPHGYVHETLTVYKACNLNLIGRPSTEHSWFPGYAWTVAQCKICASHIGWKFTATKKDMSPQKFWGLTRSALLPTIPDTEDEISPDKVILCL
Sequence of AEVK-GFP in transduced Jurkat cells (Q9UKT9 130-189 Q147A/N149E/Q150V/S154K): as the sequence (Q9UKT9 130-189 Q147A/N149E/Q150V/S154K) above
Sequence of AEVK-GFP in transduced Jurkat cells (Q96SW2 whole entry): as the sequence (Q96SW2 whole entry) above

Structure (SMILES): CC(C)(C)c1ccc2c(c1)C(=O)N(C1CCC(=O)NC1=O)C2=O (stereo not drawn) [A63, 5-(tert-butyl)-2-(2,6-dioxopiperidin-3-yl)isoindoline-1,3-dione]
- percent degradation of ZF-GFP reporter at up to 10 µM ([1]; 18 h, 10 μM, Jurkat, flow cytometry concentration curve, read-out: degradation of the top mutant ZF-GFP (AEVK)): ~100%
- selectivity compared to the WT ZF (AEVK) ([1]; from pDC50 values, 12 concentrations 5 nM-10 μM): around 30 ×
- degradation of AEVK-GFP (Western blot) [2]: full degradation
